In patent publication US10398706B2, “Heteroaryldiazepine derivatives as RSV inhibitors” (Enanta Pharmaceuticals, Inc., priority 2017, dated 2019):

Test system: Human RSV-A (“Long” strain)
Test: RSV-A in vitro cytoprotection assay in HEp-2 cells (ATPlite readout)
Assay type: cell-based, Human respiratory syncytial virus
Details: HEp-2 cells, 4-day incubation, ATPlite cell viability; read-out: Human RSV-A (“Long” strain) EC50
Source text: RSV is a single stranded negative sense RNA virus that causes respiratory tract infections which can be dangerous to infants, the elderly, and immunosuppressed individuals. Currently there is no vaccine, and therapeutic options are both costly and of limited effectiveness. These approved treatments are Ribavirin, and Palivizumab/Synagis (a monoclonal antibody). RSV has two genotypes, A and B, which differ primarily in the structure of the virus' surface “G” attachment protein. Our current primary screen focusses on RSV-A and uses an in vitro cytoprotection assay where compounds are added in 2-fold dilutions to cells which are then subjected to fully replicative viral particles. Cell viability is measured several days later along with separate measurements of compound cytotoxicity. This report focuses on the results of our most recent screening of compounds.
HEp-2 cells, (originally derived from tumors grown in irradiated-cortisonised weanling rats that had been injected with epidermoid carcinoma tissue from a person's larynx, but later found to be indistinguishable from HeLa cells by PCR DNA analysis), were used for the culturing of genotype A, “Long” strain RSV. Flasks were inoculated with RSV and viral stocks were collected once cytopathic effect (CPE) was greater than 90%. Viral stocks in 25% sucrose media were snap frozen using liquid nitrogen to increase viral stability. Viral stock titers were quantified by tissue culture infectious dose 50% (TCID50) using 8,000 cells per well and 3-fold viral dilutions across a 96-well plate, cultured for 4 days.
Following extensive parameter testing, the final assay is run as follows: HEp-2 cells are seeded into the inner 60 wells of a 96-well plate at 8,000 cells per well in a volume of 50 μL using Growth Media (DMEM without phenol red, 1% L-Glut, 1% Penn/Strep, 1% nonessential amino acids, 10% FBS). 2-fold serial dilutions of control and test compounds are added to the wells in duplicate in a total volume of 25 μL. Viral stock is then added to the wells in a volume of 25 μL, bringing the total volume of each well to 100 μL. Each 96-well plate has a control column of 6 wells with cells and virus but no compound (negative control, max CPE), a column with cells but no compound or virus (positive control, minimum CPE), and a column with no cells or virus or compound (background plate/reagent control). The control wells with cells but no virus are given an additional 25 uL of growth media containing an equal quantity of sucrose as those wells receiving the viral stock in order to keep consistent in media and volume conditions. The outer wells of the plate are filled with 125 μL of growth media to act as a thermal and evaporative moat around the test wells. Following a 4-day incubation period, the plates are read using ATPlite (50 uL added per well), which quantifies the amount of ATP (a measure of cell health) present in each well. Assay plates are read using the Envision luminometer. […] EC50 ranges are as follows: A<0.4 μM; B 0.4-0.8 μM; C>0.8 μM.

SMILES | EC50
Cc1cc2c(s1)NC(=O)[C@@H](Nc1nnc(-c3ncc(C(F)(F)F)cc3N3CCOCC3)o1)N=C2c1ccccc1 [Example 6] | < 400 nM
Cc1sc2c(c1C)C(c1ccccc1)=N[C@H](Nc1nnc(-c3ncc(C(F)(F)F)cc3N3CCOCC3)o1)C(=O)N2 [Example 8] | 400 to 800 nM

Same assay, conditions: human respiratory syncytial virus, HEp-2, 96 h, read-out: Human RSV-A (“Long” strain) EC50

SMILES | EC50
O=C1Nc2cnccc2C(c2ccccc2)=NC1Nc1nnc(-c2ccc(F)cc2)o1 (stereo not shown) [Example 3] | > 800 nM
O=C1Nc2sccc2C(c2ccccc2)=NC1Nc1nnc(-c2ncc(C(F)(F)F)cc2N2CCOCC2)o1 (stereo not shown) [Example 5] | 400 to 800 nM
O=C1Nc2cccnc2C(c2ccccc2)=NC1Nc1nnc(-c2ccccc2)o1 (stereo not shown) [Example 1] | > 800 nM
O=C1Nc2ccsc2C(c2ccccc2)=NC1Nc1nnc(-c2ncc(C(F)(F)F)cc2N2CCOCC2)o1 (stereo not shown) [Example 4] | 400 to 800 nM
O=C1Nc2ncccc2C(c2ccccc2)=NC1Nc1nnc(-c2ccc(F)cc2)o1 (stereo not shown) [Example 2] | > 800 nM
